According to US8633238B2, “Lactams and uses thereof” (Joben Bio-Medical Co., Ltd., priority 2012, dated 2014):

Columns and labels:
Type in all cases: cell-based, human
Conditions in all cases: 50 μM, 24 h
[1] = test system: MDA-MB-231 cells; test: MTT antiproliferation assay, MDA-MB-231 cells
Description: (§1) Cell Lines and Culture. MCF-7, T-47D, and H184B5F5/M10 cells were cultured with 5% CO2 atmosphere at 37° C.; MDA-MB-231 cells were cultured without CO2 at 37° C. The MCF-7 cells were cultured in MEM containing 10% heat-inactivated FBS, 100 units/mL penicillin, 100 μg/mL streptomycin, and 1 mM sodium pyruvate. The T-47D cells were maintained in RPMI-1640 medium containing 10% heat inactivated FBS, 100 units/mL penicillin, and 100 μg/mL streptomycin. […]
(§2) Assay for Antiproliferation. To determine the antiproliferative effect, MCF-7, T-47D, MDA-MB-231, or H184B5F5/M10 cells were assessed using the MTT assay as previously reported (Ho, C. Y.; Kim, C, F.; Leung, K. N.; Fung, K. P.; Tse, T. F.; Chan, H.; Lau, C. B. Differential anti-tumor activity of Coriolus versicolor (Yunzhi) extract through p53- and/or Bcl-2-dependent apoptotic pathway in human breast cancer cells. Cancer Biol. Ther. 2005, 4, e11-e17). […] The absorbance at 570 nm was measured, and the viability of cells was calculated using the following equation: relative cell number (%)=(average absorbance of treated wells)×100/(average absorbance of blank vehicle wells).

[2] = test system: MCF-7 cells; test: MTT antiproliferation assay, MCF-7 cells
Description: as §1, §2

[3] = test system: T-47D cells; test: MTT antiproliferation assay, T-47D cells
Description: as §1, §2

Row | Substance | percentage of inhibition [1] [%] | percentage of inhibition [2] [%] | percentage of inhibition [3] [%]
1 | coixspirolactam D [compound 1] | 47.4 | 30.2 | 
2 | coixspirolactam E [compound 2] | 25.3 |  | 20.7
